Assays:
[1] = target: T1, interaction between 1212AA Htt and caspase-6 (Homo sapiens, UniProt P55212); test: Co-immunoprecipitation of Htt with caspase-6 antibody from COS-7 lysates; type: cell-based; conditions: 10 uM compound, vs DMSO
T1 construct: DDK-tag (C); expressed in transfected cells; host or cells: COS-7
T1 sequence (P55212 with tags, fused parts or gaps): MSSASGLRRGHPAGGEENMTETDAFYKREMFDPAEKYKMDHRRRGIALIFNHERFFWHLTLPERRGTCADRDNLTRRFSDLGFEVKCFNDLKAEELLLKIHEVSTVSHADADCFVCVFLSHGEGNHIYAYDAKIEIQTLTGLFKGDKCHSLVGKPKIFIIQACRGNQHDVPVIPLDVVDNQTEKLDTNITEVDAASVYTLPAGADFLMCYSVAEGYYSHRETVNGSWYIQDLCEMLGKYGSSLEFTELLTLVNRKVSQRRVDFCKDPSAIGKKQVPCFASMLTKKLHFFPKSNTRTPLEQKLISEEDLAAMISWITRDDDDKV
Method: (§1) COS-7 cells were co-transfected with the 1212 amino acid HTT fragment (SEQ ID NO: 3) and the full length human caspase-6 enzyme (SEQ ID NO:4). The co-transfected cells were exposed to either 10 uM of the PG3d compound, 3 uM of the Q-VD-Oph pan-caspase inhibitor or were treated with DMSO as a control. An aliquot of the cell lysates were subjected to Western blotting to detect HTT fragments with the Htt antibody 2166 (Millipore) and the presence of caspase-6 was detected using the HD91 antibody (Ehrnhoefer et al, HMG, 2014. 23(3):717-29). The remaining cell lysates (500 ug protein) were immunoprecipitated with 5 ug of Caspase-6 antibody for 16 hrs at 4 C. The immunoprecipitated proteins were then applied to acrylamide gels and immunoblotted to detect either the HTT fragments or the presence of the active caspase 6 enzyme using the antibodies described above.
As expected, the DMSO control lysates reveal a variety of Htt fragments within the immunocomplexes, including 513AA fragment generated by caspase-3 cleavage, the full-length 1212AA Htt and the 586AA fragment generated by caspase-6 cleavage. When the cells are treated with the pan-caspase inhibitor Q-VD-OPh, the amount of Htt cleavage fragments interacting with caspase-6 is reduced and it is evident that caspase-6 is primarily interacting with the 1212 AA Htt.

[2] = target: T2, full-length human caspase-6 (Homo sapiens, UniProt P55212); test: Western blot of Htt fragments in COS-7 cells co-transfected with Htt 1-1212AA and full-length caspase-6; type: cell-based; conditions: 10 uM compound, 24 hr, vs DMSO
T2 construct: DDK-tag (C); expressed in transfected cells; host or cells: COS-7
T2 sequence (P55212 with tags, fused parts or gaps): T1 sequence (P55212 with tags, fused parts or gaps)
Method: as §1
Cos-7 cells were co-transfected with Htt 1-1212AA (SEQ ID NO:3) and full-length human caspase-6 (SEQ ID NO:6), and exposed to either the pan-caspase inhibitor Q-VD-OPh, the PG3d compound or DMSO as a negative control. As shown in the upper panel of FIG. 9A, control cells that received DMSO alone (lanes labelled n.t.) show the presence of the Htt 1212AA protein and the Htt proteolytic cleavage fragments including the 586, 552 and 513 amino acid fragments. […]

[3] = target: T3, human caspase 6 lacking the pro-domain (Homo sapiens, UniProt P55212); test: Lamin A cleavage in HEK 293 cells overexpressing caspase-6 (Mesoscale ELISA); type: cell-based; design: The transfected DNA encodes amino acids 24-293 of the human caspase 6 enzyme with a C-terminal DDK tag; DDK-tag (C); expressed in transfected cells; host or cells: HEK 293; conditions: 24 hr incubation; cleaved lamin A quantified; read-out: HEK intracellular IC50
T3 sequence (P55212 with tags, fused parts or gaps): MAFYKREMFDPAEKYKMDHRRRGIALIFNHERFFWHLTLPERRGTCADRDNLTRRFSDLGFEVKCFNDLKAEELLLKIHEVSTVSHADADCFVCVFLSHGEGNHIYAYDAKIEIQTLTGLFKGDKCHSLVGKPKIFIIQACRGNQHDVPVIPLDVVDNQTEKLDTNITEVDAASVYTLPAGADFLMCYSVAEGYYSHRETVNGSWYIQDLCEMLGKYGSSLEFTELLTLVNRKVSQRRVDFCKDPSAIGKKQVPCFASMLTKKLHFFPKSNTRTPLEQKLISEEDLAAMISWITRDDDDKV
Method: HEK 293 cells were grown in DMEM supplemented with 10% fetal bovine serum, 1%/penicillin/streptomycin and 0.5% glutamine. Transfections were performed using the Fugene reagent (Roche) according to manufacturer's instructions. The transfected DNA encodes amino acids 24-293 of the human caspase 6 enzyme with a C-terminal DDK tag under the control of a CMV promoter (vector pCMVSport6) (SEQ ID NO: 2). The transfected HEK 293 were used to measure the intracellular activity of caspase-6 as evidenced by cleavage of the lamin substrate (described below).
The quantitative assessment of intracellular lamin cleavage in caspase-6 transfected HEK 293 cells was done as described previously (Ehrnhoefer et al. PLoS One, 2011. 6(11):e27680) Briefly, HEK 293 cell lysates were adjusted to 1 μg protein/μl in lysis buffer, diluted to 0.2 μg/μl in PBS and 5 μl were added to a Multi-Array high-bind 96 well plate (Mesoscale discovery). After incubation at room temperature for 1 h, the wells were blocked by adding 150 μl 5% BSA in PBS, followed by further incubation at room temperature for 1 h. Wells were then washed 3× with 150 μl PBS+0.05% Tween, and 25 μl antibody mix was added (Cell signaling #2036 at 1:100 dilution, Mesoscale discovery goat-anti-rabbit sulfo-tag at 1:500 dilution in PBS with 1% BSA). After lh incubation at room temperature, the wells were washed 3× with 150 μl PBS+0.05% Tween, and 150 μl/well 2× reading reagent (Mesoscale discovery) was added. The plate was read on a Sector imager 6000 (Mesoscale discovery).
The PG3 analog compounds were also tested for their ability to inhibit caspase-6 within cultured cells. HEK 293 cells were transfected with human caspase 6 lacking the pro-domain and were incubated with increasing concentrations of the PG3 analogs. After a 24 hr incubation, the excess compound was washed away, the cells were lysed and the amount of cleaved lamin A protein was quantified by the Mesoscale ELISA method.

O=c1oc(C#Cc2ccccc2)nc(O)c1Cc1ccccc1 [PG-3d, 5-Benzyl-4-hydroxy-2-(phenylethynyl)-6H-1,3-oxazin-6-one]
interaction between 1212AA Htt and caspase-6 (co-immunoprecipitated Htt) [1]: significantly reduces | level of the 586AA Htt fragment [2]: reduction | melting point: 179 to 181 °C | IC50 [3]: 2600 nM

— patent US20190192524A1, “Modulators of Caspase-6” (The University of British Columbia, priority 2014, published 2019)
